Experimental data: patent publication US4130637A, “Anti-plaque agents” (Colgate-Palmolive Company, priority 1977, dated 1978)
Structures can show the parent of a compound that is named as a salt.

Key:
T. ment. = test: Minimum inhibitory concentration, test tube serial dilution test; format: cell-based, Trichophyton mentogrophytes; details: Trichophyton, mold
Description: (§1) The antimicrobial nature of the instant novel nontoxic compounds was shown by a standard test tube serial dilution test in which an appropriate number of test tubes of broth containing decreasing concentration of the test agent was innoculated with the test organism (0.1% in 95% ethyl alcohol). After a suitable period of incubation, the tubes were examined for the presence or absence of growth. The activity of the test agent was the lowest concentration which inhibited the growth of the organism and is expressed as the minimal inhibitory concentration in μgm/ml.

A. naeslundi = test: as above; format: cell-based, Actinomycetis naeslundii; details: Actinomyces naeslundii, Gram Positive
Description: as §1

Strep. sanguis = test: as above; format: cell-based; details: Streptococcus, Gram Positive
Description: as §1

C. albicans = test: as above; format: cell-based; details: Candida albicans, yeast
Description: as §1

A. niger = test: as above; format: cell-based; details: Aspergillus niger, mold
Description: as §1

Ps. aeruginosa = test: as above; format: cell-based; details: Pseudomonas aeruginosa, Gram Negative
Description: as §1

Staphylococcus aureus = test: as above; format: cell-based; details: S. aureus, Gram Positive
Description: as §1

Strep. mutans = test: as above; format: cell-based; details: Streptococcus mutans, Gram Positive
Description: as §1

E. Coli = test: as above; format: cell-based; details: Escherichia coli, Gram Negative
Description: as §1

micro-organisms [1] = details: reported by Swain et al. and Stedman et al.; cited from earlier work
bacteria = details: Stedman et al. 1953; cited from earlier work
[2] = In vivo stain formation test on beagles (oral spray); design: species or system Beagle dogs
From the text: This treatment was continued daily for 7 weeks. […] Score results range from 0 to 4:
1 stain present covering one-fourth of tooth surface;
2 stain present covering one-half of tooth surface;
3 stain present covering three-fourths of tooth surface;
4 stain present covering entire tooth surface.
(§2) The animals used in these studies were registered Beagle dogs 6 to 8 months of age, weighing 8 to 10 kilos. The animals were kept in good health and had not received any treatment for at least three weeks prior to the start of a study. They were anaesthesized (Na-Nembutal 25-30 mgs/kg) and received a complete dental prophylaxis. Disclosing solution (TRACE, Erythrosine, Lorvic St. Louis, Mo. U.S.A.) was used to insure the complete removal of soft and hard dental deposits. The dogs receive this diet exclusively -- ground Purina Dog Chow soaked in water for at least two hours to form a soft mush. In addition, each animal receives approximately one-half can of ground beef (no chunks). No hard substances were permitted for the duration of the study. The animals were treated once daily with the test solutions (approx. 6 to 9 ml.) using a gentle spray over all surfaces of dentition. Treatments continued at least five days per week for the duration of the experiment. Each animal was examined weekly for plaque, and stain. Photographs were taken by the examining investigator immediately after the prophylaxis and at every examination. Before starting with the plaque study, the groups were balanced with respect to plaque formation.

[3] = In vivo plaque test on beagles (disclosing solution); design: species or system Beagle dogs; details: for PLAQUE Mean Score: Table II, score 1-4, 20 teeth per beagle, placebo 2.19, benzethonium chloride at .075%; for PLAQUE % Diff.: versus placebo, Signif. printed: 50/50 mixture N.S., 90% betaine 95%, Hibitane 95%, .075% benzethonium chloride 99%
From the text: as §2, with “The animals were kept in good health and had not received any treatment for at least three weeks prior to the start of a study.” left out

micro-organisms [4] = test: Antimicrobial activity (general statements); format: cell-based
Description: as §1, with “μgm/ml. As shown in the following table of anitmicrobial data, the betaines of this invention are active against a variety of micro-organisms with maximum activity when the higher alkyl group has 14-16 carbons.” for “μgm/ml.”

[5] = Staining of teeth / oral surfaces (general statements); format: in vivo; details: under use conditions

Row | SMILES | MIC (T. ment.) [µg/mL] | MIC (A. naeslundi) [µg/mL] | MIC (Strep. sanguis) [µg/mL] | MIC (C. albicans) [µg/mL] | MIC (A. niger) [µg/mL] | MIC (Ps. aeruginosa) [µg/mL] | MIC (Staphylococcus aureus) [µg/mL] | MIC (Strep. mutans) [µg/mL] | MIC (E. Coli) [µg/mL] | other results
1 | CCCCCCCCCCCCCC[N+](C)(C)CCCCCCCCCCC(=O)O.[Br-] [C14 H29 [RN^+ (CH3)2 (CH2)10 COOH] Pr^-, tetradecyldimethyl(10-carboxydecyl)-ammonium bromide] | 3.12 | 0.39 | 1.56 | 3.12 | 25 | 50 | 0.39 | 1.56 | 100 | –
2 | CCCCCCCCCCCCCCCC[N+](C)(C)CCCCCCCCCCC(=O)O.[Br-] [C16 H33 [RN^+ (CH3)2 (CH2)10 COOH] Pr^-, Hexadecyldimethyl(10-carboxydecyl)ammonium bromide] | 12.5 | 0.78 | 1.56 | 3.12 | 50 | 50 | 0.39 | 1.56 | 100 | antimicrobial properties (micro-organisms [1]): reported to have antimicrobial properties
3 | CCCCCCCCCCCCCCCC[N+](C)(C)CC(=O)[O-] [C16 H33 N^+ (CH3)2 CH2 COO^-] | – | – | – | – | – | – | – | – | – | bactericidal activity relative to related non-betaine [C16 H33 N(CH3)2 CH2 C6 H5 ]Cl (bacteria): less than one-tenth
4 | CC(C)(C)CC(C)(C)c1ccc(OCCOCC[N+](C)(C)Cc2ccccc2)cc1 [Benzethonium Chloride, benzethonium chloride] | – | – | – | – | – | – | – | – | – | Mean Stain Result ([2]; 0.1% aqueous solution, daily spray, 7 weeks, 10 dogs, score 0-4, deionized water 0.07): 0.59; increase in staining ([2]; 0.1% solution, 7 weeks, versus deionized water): 742%; No. of dogs w. Stain ([2]; Table II, dogs with stain/dogs tested, placebo 1/8, benzethonium chloride at .075%): 3/7; Mean Stain Score ([2]; Table II, score 0-4, placebo 0.388, benzethonium chloride at .075%): 0.53; PLAQUE Mean Score [3]: 1.80; PLAQUE % Diff. [3]: -25.0%
5 | CCCCCCCCCCCCCCCC[N+](C)(C)CCCCCCCCCCC(=O)[O-] [C16 H33 RN^+ CH3)2 (CH2)10 COOH, N-(10-Carboxydecyl)-N,N-dimethylhexadecanaminium hydroxide, inner salt] | 1.56 | 0.78 | 0.78 | 3.12 | 100 | 100 | 1.56 | 1.56 | 100 | antimicrobial activity (micro-organisms [4]): the activity is not diminished and is sufficient for the exhibition of useful antimicrobial and anti-plaque properties
6 | [H]/N=C(\N/C(=N/[H])NCCCCCCNC(=N)NC(=N)Nc1ccc(Cl)cc1)Nc1ccc(Cl)cc1 [Hibitane, Chlorhexidine] | – | – | – | – | – | – | – | – | – | Mean Stain Score ([2]; dog, in vivo): 0.956; No. of dogs w. Stain ([2]; dog, in vivo): 8/8; degree of staining ([2]; dog, in vivo): significantly increased staining; staining / discoloration [5]: noticeable discolorations; PLAQUE Mean Score [3]: 1.32; PLAQUE % Diff. [3]: -39.7%
7 | CCCCCCCCCCCCCC[N+](C)(C)CCCCCCCCCCC(=O)[O-] [C14 H29 RN^+ CH3)2 (CH2)10 COOH, N-(10-Carboxydecyl)-N, N-dimethyltetradecanaminium hydroxide, inner salt] | 0.78 | 0.39 | 1.56 | 3.12 | 50 | 100 | 1.56 | 1.56 | 100 | –
8 | CCCCCCCCCCCC[N+](C)(C)CCCCCCCCCCC(=O)O [C12 H25 [RN^+ (CH3)2 (CH2)10 COOH] Pr^-] | 12.5 | 12.5 | 12.5 | 25 | 50 | 50 | 6.25 | 12.5 | 100 | –
